One may read the IC50 as the midpoint of a concentration-inhibition curve. As a reminder, the Ki is the equilibrium dissociation constant of an inhibitor or competing ligand from its target. Read a high Ki as weaker binding. A word on the kinact: it is the rate constant of inactivation at saturating inhibitor. Usually kinact/KI stands for the second-order rate constant of inactivation. For orientation: EC50 means the concentration needed to bring the measured effect to its halfway point.

Assay [1] has as its target T1, DCN1 (DCUND1) protein PONY domain (Homo sapiens (Human), UniProt Q96GG9). Kind of assay: TR-FRET assay (binding to DCN-1, displacement of FAM-labeled probe). In a few lines:
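Compounds read at 1, 5 and 24 h, 0.1% final DMSO, by TR-FRET between terbium-streptavidin on biotinylated DCN1 PONY domain (E. coli) and a FAM-tagged non-covalent inhibitor probe. Two setups used, 5 nM protein with 20 nM labelled probe, or 0.31 nM protein with 100 nM labelled plus 800 nM unlabelled probe; buffer had TritonX and 200 mM NaCl. % activity relative to high (with probe) and low (without probe) controls.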
In general terms: In TR-FRET formats the signal depends on donor and acceptor labels being close together.

Assay [2] has as its target T1, DCN1 (DCUND1) protein PONY domain. Kind of assay: Off-rate measurement of reversible covalent molecules (jump dilution TR-FRET with Cy5 probe). The settings on record: binding mode from off-rate measurement. As to the method:
A TR-FRET assay was performed to classify the compounds as an irreversible covalent binder, a reversible covalent binder or a reversible binder.
An assay to measure the off-rate of reversible covalent molecules was developed. A typical covalent compound is assumed to stay bound to a protein for at least the life of that protein in the cell. In reality, there is a range of how long a covalent compounds remains bound before a reverse reaction takes place. Thus, some covalent bonds can be labeled as reversible as their reverse reaction takes place in a measurable amount of time under physiological conditions. The assay capitalizes on the range of covalent binders by using a high affinity covalent binder as a probe to displace the more reversible binders in an adaptation of the jump dilution method.
In this version of the jump dilution method, the increase in covalent probe binding over time was measured through a TR-FRET reaction between the covalent probe and the biotinylated target protein.
(§1) The recombinant form of the DCN1 (DCUND1) protein PONY domain was produced using an E. coli expression system at Viva Biotech (China). The DCN1 protein was biotinylated (EZ sulfo-NHS-LC-biotin; Thermofisher) for labeling with streptavidin terbium (Tb) cryptate in the reaction. This biotinylated protein was used in two forms of the TR-FRET assay as described below.
The off-rate measurement is executed in two steps based on the jump dilution method. […] The greatest dilution allowed within the constraints of the assay was chosen. These factors allow a competitive advantage for the covalent probe to replace the test compound when that compound releases from the target protein. The actual measure is the rate of increased TR-FRET signal as the covalent probe replaces the test compound over time. […] The resulting time dependent curve of the TR-FRET signal is fit to the following equation: Y=Y0+(Plateau−Y0)*(1−exp(−K*x))
K is the rate constant (1/unit of time). The residence time is defined as the inverse of K, the rate constant. The half-life is calculated as ln(2)/K.

Assay [3] deals with DCN2 (DCUND2) protein PONY domain (Homo sapiens (Human), UniProt Q6PH85). Kind of assay: DCN2 TR-FRET assay, measurement of Kinact/KI. It is filed as binding. The protocol: A TR-FRET Assay was performed to evaluate the ability of the compounds to bind DCN-2. The time resolved—Forster's resonance energy transfer (TR-FRET) assay was designed following the protocol established in (Scott et al., Nat Chem Biol. 2017 August; 13(8): 850-857). A recombinant form of the DCN2 (DCUND2) protein PONY domain was produced using an E. coli expression system at Viva Biotech China. The DCN2 protein was biotinylated (EZ sulfo-NHS-LC-biotin; Thermofisher) for labeling with 2.5 nM streptavidin terbium (Tb) cryptate in the reaction. The probe was changed to a non-covalent DCN1 inhibitor labeled with carboxyfluorescein (FAM; Zhou el al., Nat Commun. 2017; 8: 1150). Buffer conditions were modified to enhance protein stability by replacing TritonX with 0.05% Tween20 and increasing NaCl to 200 mM. […] The Kinact and KI measurements were taken to allow for continuous reads over 24 hrs. Plates were read every 5 min up to 1 hr, every 15 min up to 5 hr, and every hour up to 10 hours. Kinact and KI were calculated based on the following equations (Krippendorff B F, et al. Mechanism-based inhibition: deriving K(I) and k(inact) directly from time-dependent IC(50) values. J BiomolScreen. 2009; Mons E et al. A Comprehensive Guide for Assessing Covalent Inhibition in Enzymatic Assays Illustrated with Kinetic Simulations. […] The Kinact and KI values could be estimated from the tight curves of the IC50 values over time. [formula]
DCN2 (DCUND2) protein PONY domain, sequence (Q6PH85 60-248): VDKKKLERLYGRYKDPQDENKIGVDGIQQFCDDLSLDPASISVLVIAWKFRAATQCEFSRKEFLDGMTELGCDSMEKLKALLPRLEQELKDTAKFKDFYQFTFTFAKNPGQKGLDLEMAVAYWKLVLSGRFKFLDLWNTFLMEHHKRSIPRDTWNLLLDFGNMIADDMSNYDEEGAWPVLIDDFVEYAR

The target in assay [4] is T1, DCN1 (DCUND1) protein PONY domain. Kind of assay: TR-FRET with FAM probe (compound potency, potency of the Cy5 probe). The class given is binding. The settings on record: potency of the covalent Cy5 probe (P-1) to DCN1; read-out: Kd (EC50) of the Cy5 probe.
Excerpt: as §1
This version of the TR-FRET assay was used to measure compound potency to the target, specifically to measure the potency of the Cy5 probe (P-1). A non-covalent DCN1 inhibitor (Zhou et al., 2017) labeled with carboxyfluorescein (FAM) was used as the FRET acceptor probe. Displacement of the […], and thus decrease in the FRET signal, was indicative of compound activity on the target protein. Buffer conditions were optimized to enhance compound and protein stability (200 mM NaCl, 25 mM Tris, 0.5 mM DTT, 0.05% Tween20, 5% DMSO, 5% PEG-3350, pH 7.5) and concentrations of protein (0.31 nM) and probe (100 nM labeled, 800 nM unlabeled) were optimized for detection of potent molecules. The TR-FRET ratio between Tb-DCN1 and the FAM-labeled probe was measured in a 384-well opti-plate (Perkin Elmer) using a plate reader (BMG) at 1, 5, and 24 hrs after treatment with compound. The ratio was normalized to the high (DCN1 and FAM-probe) and low (DCN1 and no probe) controls for a readout of % activity (=100*(x−low)/(high−low)).

In assay [5] the test system is Cullin-3 (CUL3) neddylation. The settings on record: positive control, 1 μM; Zhou et al. Nature Comm. 2021; cited from earlier work.
The mark [6] stands for this setting: 24 hr after treatment with compound, read-out: TR FRET IC50 24 hr.
Setting [7] is: read-out: TR FRET IC50 1 hr, 1 hr after treatment with compound.

Molecules are shown by their SMILES. Where two headings read alike, the source gives them in different places.

T1 sequence (Q96GG9 60-248): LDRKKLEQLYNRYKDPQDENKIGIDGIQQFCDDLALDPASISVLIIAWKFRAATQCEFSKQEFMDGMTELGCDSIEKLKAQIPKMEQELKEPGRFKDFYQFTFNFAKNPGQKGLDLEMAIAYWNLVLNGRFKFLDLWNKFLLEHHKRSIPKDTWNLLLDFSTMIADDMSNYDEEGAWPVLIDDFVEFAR

`C=C(C(=O)NCc1cccc([C@@H]2c3cnn(-c4ccccc4)c3N(CC)C(=O)[C@H]2NC(=O)c2nccc(C(F)(F)F)n2)c1)[C@@H](C)N(C)C1COC1` [Compound I-300]: the IC50 in assay [1] (setting [6]) and in assay [1] (setting [7]) was not above 200 nM throughout. For the same molecule, the Category result in assay [2] is “irreversible”.
Turning to `C=C(C(=O)NCc1cccc([C@@H]2c3cnn(-c4ccccc4)c3N(CC)C(=O)[C@H]2NC(=O)c2csc(C(F)(F)F)n2)c1)C(C)N(C)C1COC1` (some centres unmarked) [Compound I-305], the half-maximal inhibitory concentration (IC50) in assay [1] (setting [6]) is not above 200 nM. Further, in assay [1] (setting [7]), the 50% inhibitory concentration (IC50) was not above 200 nM. Also, the Category result in assay [2] is recorded as “irreversible”. In addition, in assay [3], the inhibitory constant (Ki) was more than 0.5 nM, the kinact was in the range of 0.005 to 0.00833 s⁻¹ and the kinact/KI lay in the range of 167000 to 3.33e+06 M⁻¹ s⁻¹.
Turning to `C/C=C(\CN1CCN(C2COC2)CC1)C(=O)Nc1cccc([C@@H]2c3cnn(-c4ccccc4)c3N(CC)C(=O)[C@H]2NC(=O)c2ccn(C(F)(F)F)n2)c1` [Compound I-383, N-((4R,5S)-7-ethyl-4-(3-((E)-2-((4-(oxetan-3-yl)piperazin-1-yl)methyl)but-2-enamido)phenyl)-6-oxo-1-phenyl-4,5,6,7-tetrahydro-1H-pyrazolo[3,4-b]pyridin-5-yl)-1-(trifluoromethyl)-1H-pyrazole-3-carboxamide], the IC50 in assay [1] (setting [6]) was not above 200 nM. In addition, the concentration for half-maximal inhibition (IC50) in assay [1] (TR FRET IC50 1 hr (nM), 1 hr after treatment with compound) was not above 200 nM. Moreover, in assay [2], the Category result was “irreversible”. In assay [3], the Ki was more than 0.5 nM, the kinact lay in the range of 0.00333 to 0.005 s⁻¹ and the kinact/KI fell in the range of 167000 to 3.33e+06 M⁻¹ s⁻¹.
As for `C=C(CN1CCOCC1)C(=O)Nc1cccc([C@@H]2c3cnn(-c4cccc(OCCCN5CCN(C(=O)CCCCCN6/C(=C/C=C/C=C/C7=[N+](C)c8ccc(S(=O)(=O)[O-])cc8C7(C)C)C(C)(C)c7cc(S(=O)(=O)O)ccc76)CC5)c4)c3N(CC)C(=O)[C@H]2NC(=O)c2cccc(C(F)(F)F)c2)c1` [Cy5 probe, 2-((1E,3E)-5-((E)-1-(6-(4-(3-(3-((4R,5S)-7-ethyl-4-(3-(2-(morpholinomethyl)acrylamido)phenyl)-6-oxo-5-(3-(trifluoromethyl)benzamido)-4,5,6,7-tetrahydro-1H-pyrazolo[3,4-b]pyridin-1-yl)phenoxy)propyl)piperazin-1-yl)-6-oxohexyl)-3,3-dimethyl-5-sulfoindolin-2-ylidene)penta-1,3-dien-1-yl)-1,3,3-trimethyl-3H-indol-1-ium-5-sulfonate], the EC50 in assay [4] is 23.2 nM.
For `C=C(CN1CCOCC1)C(=O)NC[C@@H](NC(=O)[C@H](Cc1nc2ccc(C(C)C)cc2s1)NC(=O)CC)C1CCCCC1` [DI-1548], in assay [5], the “effect on CUL3 neddylation” value was “reduce CUL3 neddylation”.

The values are drawn from patent US12435087B2, “Modulators of DCN-1 and methods of use thereof” (Cellarity, Inc., priority 2023, dated 2025).
